Experiments:
Assay type in all cases: in vivo
[1] = tested on: diamondback moth, Plutella xylostella; experiment: Cabbage plant track-sprayer bioassay against diamondback moth; conditions: single active, 0.0025 weight %, second instar
Description: A pesticidal composition was prepared by thoroughly mixing about 0.04 weight % of N-(3-chloro-1-(pyridin-3-yl)-1H-pyrazol-4-yl)-N-ethyl-3-((3,3,3-trifluoropropyl)sulfinyl) propanamide (hereinafter “compound II”) with about 0.000156 weight % of chlorpyrifos.
The bioassays were performed for different active compounds. Cabbage plants with about two to three new-growth-true leaf stage were treated with different active compounds using a track sprayer application at 400 L/Ha spray volume. Three second instar diamondback moth, Plutella xylostella, were infested onto each leaf disc. The percent control of the pesticidal composition against diamondback moth, Plutella xylostella, was determined as the “Observed” action, and compared to those obtained by using about 0.0025 weight % of compound II, and using about 0.0025 weight % of chlorpyrifos alone. The “Colby's Expected Action” was calculated using Colby's equation as discussed previously.

[2] = tested on: Western flower thrips, Frankliniella occidentalis; experiment: Cotton leaf punch dip bioassay against Western flower thrips; conditions: single active
Description: The active compositions were formulated in a 10% acetone solution with 0.025% non-ionic surfactant, TWEEN® 20. Cotton leaf punches were used for bioassays. Two cotton leaf punches were placed in each solution and left there for 10 minutes. Leaves were taken out of the solution, placed on a piece of filter paper in separated Petri dishes, and air dried. Each leaf disc was considered a repetition. Five nymphs of Western flower thrips, Frankliniella occidentalis, were infested per repetition.
The active compounds were formulated in a 10% acetone solution with 0.025% non-ionic surfactant, TWEEN® 20. Cotton leaf punches were used for bioassays. Two cotton leaf punches were placed in each solution and left there for 10 minutes. Leaves were taken out of the solution, placed on a piece of filter paper in separated Petri dishes, and air dried. Each leaf disc was considered a repetition. Five nymphs of Western flower thrips, Frankliniella occidentalis, were infested per repetition.

[3] = tested on: plant bugs, Lygus hesperus; experiment: Bean piece dip bioassay against Western plant bugs; conditions: single active
Description: The active compositions were formulated in a 10% acetone solution with 0.025% non-ionic surfactant, TWEEN® 20. Bean pieces (about one inch-long) were used for the tests. Four bean pieces were placed in each tested active solution and left there for 10 minutes. Bean pieces were taken out of the active solution, and each piece was placed in a well in a 32-well tray and allowed to air dry. Three third-instar nymphs of Western plant bugs, Lygus hesperus, were infested into each well.

[4] = tested on: brown stink bug, Euschistus heros; experiment: Bean piece dip bioassay against brown stink bug; conditions: single active
Description: The active compositions were formulated in a 10% acetone solution with 0.025% non-ionic surfactant, TWEEN® 20. Bean pieces (about one inch-long) were used for the tests. Four bean pieces were placed in each tested active solution and left there for 10 minutes. Bean pieces were taken out of the active solution, and each piece was placed in a well in a 32-well tray and allowed to air dry. Three third-instar nymphs of brown stink bug, Euschistus heros, were infested into each well.
A pesticidal composition formulated in a 10% acetone solution with 0.025% non-ionic surfactant, TWEEN® 20 were tested against brown stink bugs, Euschistus heros, according to the procedure described in example 8A.

[5] = 0.04 weight %, third-instar nymphs

Row | Structure (SMILES) | % Control Three Days After Treatment [1] | % Control Three Days After Treatment ([1]; listed as chlorpyrifos) | % Control Three Days After Treatment ([2]; 0.0000049 weight %) [%] | % Control Three Days After Treatment ([2]; 0.0000049 weight %, listed as chlorpyrifos) | % Control Three Days After Treatment ([2]; 0.0000195 weight %) [%] | % Control Three Days After Treatment ([2]; 0.0003125 weight %) [%] | % Control Three Days After Treatment ([2]; 0.00125 weight %) [%] | % Control Three Days After Treatment ([3]; 0.0003125 weight %) [%] | % Control Four Days After Treatment ([4]; 0.000156 weight %) [%] | % Control Four Days After Treatment ([4]; 0.000156 weight %, listed as chlorpyrifos) | % Control Four Days After Treatment ([4]; 0.000625 weight %) [%] | % Control Three Days After Treatment ([2]; 0.04 weight %, nymphs) [%] | % Control Four Days After Treatment [4, 5] | % Control Three Days After Treatment ([2]; 0.04 weight %, nymphs, listed as compound II) | % Control Three Days After Treatment [3, 5] [%]
1 | CCOP(=S)(OCC)Oc1nc(Cl)c(Cl)cc1Cl [Chlorpyrifos, O,O-diethyl O-3,5,6-trichloropyridin-2-yl phosphorothioate] | 0% | substantially no pesticidal activity | 0 | no activity | 20 | 70 | 80 | 50 | 0 | no activity | 92 |  |  |  | 
2 | CCN(C(=O)CCSCCC(F)(F)F)c1cn(-c2cccnc2)nc1Cl [Compound I, N-(3-chloro-1-(pyridin-3-yl)-1H-pyrazol-4-yl)-N-ethyl-3-((3,3,3-trifluoropropyl)thio)propanamide] |  |  |  |  |  |  |  |  |  |  |  | 20 | no activity |  | 
3 | CCN(C(=O)CC[S+]([O-])CCC(F)(F)F)c1cn(-c2cccnc2)nc1Cl (centres unmarked) [Compound II, N-(3-chloro-1-(pyridin-3-yl)-1H-pyrazol-4-yl)-N-ethyl-3-((3,3,3-trifluoropropyl)sulfinyl)propanamide] | substantially no pesticidal activity |  |  |  |  |  |  |  |  |  |  | 0 |  | no activity | 0

Source: patent US9801383B2, “Synergistic pesticidal compositions and related methods” (priority 2013, dated 2017)
